Literature values, collected in patent US20030199492A1, “Combination therapy” (priority 1997, published 2003).

Legend:
[1] = system: smooth muscle cell migration

CCOC(=O)C1=C(COCCN)NC(C)=C(C(=O)OC)C1c1ccccc1Cl (single isomer, unassigned) [R(+) isomer, amlodipine]
inhibition of smooth muscle cell migration [1]: potent inhibitor of smooth muscle cell migration | calcium channel blocking activity (calcium channel): little or no calcium channel blocking activity
